For experiment [1], the target named is T1, 20S proteasome (Homo sapiens) (UniProt P49721+P20618+P28074+P28062+P28065+P28072+P25786+P25787+P25788+P25789+P28066+P60900+O14818+Q8TAA3+P40306+A5LHX3+P49720+P28070+Q99436). Nature of the experiment: (§1) Activation of human erythrocyte-derived 20s proteosome using CT-L as peptide substrate by fluorescence based analysis. It counts as cell-based. The following applies: filed as activator.

The target in experiment [2] is 20S proteasome. Described as §1. It counts as cell-based.
Experiment [3] concerns the target T1, 20S proteasome (Homo sapiens). Nature of the experiment: Activation of human erythrocyte-derived 20s proteosome using T-L as peptide substrate by fluorescence based analysis. It counts as cell-based. Conditions: filed as activator.
For experiment [4] the target is unchanged. Nature of the experiment: Activation of human erythrocyte-derived 20s proteosome using CT-L as peptide substrate at 10 uM by fluorescence based analysis relative to control. In kind it is cell-based. Conditions: filed as activator.
For experiment [5], the system named is H9c2. Nature of the experiment: Protection against hypoxia-induced cell damage in rat H9c2 cells at 0.05 uM incubated for 14 hrs by MTT assay. It counts as functional, cell-based.
Experiment [6] concerns H9c2. Nature of the experiment: Protection against hypoxia-induced cell damage in rat H9c2 cells at 0.1 uM incubated for 14 hrs by MTT assay. It counts as functional, cell-based.
Experiment [7] has as its system H9c2. Nature of the experiment: Anti-apoptotic activity in rat H9c2 cells at 0.1 uM preincubated for 24 hrs followed by incubation under normoxic condition for 18 hrs by Annexin V-FITC and PI staining based flow cytometry analysis. In kind it is functional, cell-based. The following applies: time 42.0 hrs.
The test system of experiment [8] is H9c2. Nature of the experiment: Anti-apoptotic activity in rat H9c2 cells at 0.1 uM preincubated for 24 hrs followed by incubation under hypoxic condition for 18 hrs by Annexin V-FITC and PI staining based flow cytometry analysis. Conditions: time 42.0 hrs. It counts as functional, cell-based.
Experiment [9] concerns H9c2. Nature of the experiment: Anti-apoptotic activity in rat H9c2 cells at 0.1 uM under normoxic condition by TUNEL staining based analysis. It counts as functional, cell-based.
The subject of experiment [10] is H9c2. Nature of the experiment: Anti-apoptotic activity in rat H9c2 cells at 0.1 uM under hypoxic condition by TUNEL staining based analysis. It counts as functional, cell-based.
Experiment [11] concerns H9c2. Nature of the experiment: Anti-apoptotic activity in rat H9c2 cells assessed as viable cells at 0.1 uM preincubated for 24 hrs followed by incubation under normoxic condition for 18 hrs by Annexin V-FITC and PI staining based flow cytometry analysis (reference value: 94.7%). It counts as functional. Conditions: time 42 hrs, read-out: Activity.
In experiment [12] the test system is H9c2. Nature of the experiment: Anti-apoptotic activity in rat H9c2 cells assessed as early apoptotic cells at 0.1 uM preincubated for 24 hrs followed by incubation under normoxic condition for 18 hrs by Annexin V-FITC and PI staining based flow cytometry analysis (reference value: 0.75%). It counts as functional. Conditions: time 42 hrs.
The subject of experiment [13] is H9c2. Nature of the experiment: Anti-apoptotic activity in rat H9c2 cells assessed as late apoptotic cells at 0.1 uM preincubated for 24 hrs followed by incubation under normoxic condition for 18 hrs by Annexin V-FITC and PI staining based flow cytometry analysis (reference value: 3.68%). The following applies: time 42 hrs. In kind it is functional.
Experiment [14] deals with H9c2. Nature of the experiment: Anti-apoptotic activity in rat H9c2 cells assessed as necrotic cells at 0.1 uM preincubated for 24 hrs followed by incubation under normoxic condition for 18 hrs by Annexin V-FITC and PI staining based flow cytometry analysis (reference value: 0.60%). It counts as functional. Conditions: time 42 hrs.
Experiment [15] relates to H9c2. Nature of the experiment: Anti-apoptotic activity in rat H9c2 cells assessed as viable cells at 0.1 uM preincubated for 24 hrs followed by incubation under hypoxic condition for 18 hrs by Annexin V-FITC and PI staining based flow cytometry analysis (reference value: 85.85%). It counts as functional. The following applies: time 42 hrs, read-out: Activity.
Experiment [16] has as its system H9c2. Nature of the experiment: Anti-apoptotic activity in rat H9c2 cells assessed as early apoptotic cells at 0.1 uM preincubated for 24 hrs followed by incubation under hypoxic condition for 18 hrs by Annexin V-FITC and PI staining based flow cytometry analysis (reference value: 4.06%). It counts as functional. Conditions: time 42 hrs.
Experiment [17] deals with H9c2. Nature of the experiment: Anti-apoptotic activity in rat H9c2 cells assessed as late apoptotic cells at 0.1 uM preincubated for 24 hrs followed by incubation under hypoxic condition for 18 hrs by Annexin V-FITC and PI staining based flow cytometry analysis (reference value: 8.60%). In kind it is functional. Conditions: time 42 hrs.
The subject of experiment [18] is H9c2. Nature of the experiment: Anti-apoptotic activity in rat H9c2 cells assessed as necrotic cells at 0.1 uM preincubated for 24 hrs followed by incubation under hypoxic condition for 18 hrs by Annexin V-FITC and PI staining based flow cytometry analysis (reference value: 0.50%). The following applies: time 42 hrs. In kind it is functional.
For experiment [19], the system named is H9c2. Nature of the experiment: Upregulation of Ki-67 expression in rat H9c2 cells at 0.1 uM under normoxic condition by qRT-PCR analysis. It counts as functional, cell-based.
Experiment [20] concerns H9c2. Nature of the experiment: Upregulation of Ki-67 expression in rat H9c2 cells at 0.1 uM under hypoxic condition by qRT-PCR analysis. It counts as functional, cell-based.
In experiment [21] the test system is H9c2. Nature of the experiment: Effect on PCNA expression in rat H9c2 cells at 0.1 uM under normoxic condition by qRT-PCR analysis. It counts as functional, cell-based.
Experiment [22] deals with H9c2. Nature of the experiment: Effect on PCNA expression in rat H9c2 cells at 0.1 uM under hypoxic condition by qRT-PCR analysis. In kind it is functional, cell-based.
Another experiment concerns HEK293. Nature of the experiment: Inhibition of […]-induced ER stress in HEK293 cells harbouring XBP1-delta DBD-Luc cells assessed as decrease in luciferase activity incubated for 8 hrs by […]. It counts as functional, cell-based. Conditions: Homo sapiens, dose 10-20 µM.
Experiment [23] concerns the target 20S proteasome. Nature of the experiment: Activation of 20s proteosome (unknown origin) mediated chymotrypsin-like activity. It counts as protein-complex assay, Homo sapiens.
Experiment [24] has as its target T1, 20S proteasome (Homo sapiens). Nature of the experiment: Activation of 20s proteosome (unknown origin) mediated chymotrypsin-like activity assessed as fold maximum enhancement. In kind it is protein-complex assay. The following applies: filed as activator.

pEC50: −log10 of the molar value. The source made the active and inactive calls. No cut-off for these calls is given here.

`Cc1ccccc1Nc1cc(NCC(C)C)c2noc3c2c1C(=O)c1ccccc1-3` showed an EC200 in [1] of 0.67 µM. Besides, the pEC50 on 20S proteasome [2] was 5.47. This compound came in with a fold change (FC) in experiment [3] of 6.38. For the same compound, the Activity in experiment [4] was found to be 486%; in the experiment on H9c2 [12], 0.65%; with H9c2 [13], 3.53%; with H9c2 [14], 1.3%; in the experiment with H9c2 [16], 1.18%; in the experiment with H9c2 [17], 4.73%. In addition, the Activity with H9c2 [18] is reported as 1.34%. For the same compound, the result with H9c2 [5], in the experiment on H9c2 [6], with H9c2 [8], in the experiment on H9c2 [10], with H9c2 [19] and in the experiment with H9c2 [20] was Active. Further, the outcome with H9c2 [7], with H9c2 [9], in the experiment with H9c2 [21] and in the experiment on H9c2 [22] was inactive. Besides, the viability at 0.1 µM with H9c2 [11] came out at 94.6%; with H9c2 [15] it was 92.8%. Further, in the experiment with HEK293, the inhibition result is “Active”.

Consider `CC1(C)CC[C@]2(C(=O)O)CC[C@]3(C)C(=CC[C@@H]4[C@@]5(C)CC[C@H](O)C(C)(C)[C@@H]5CC[C@]43C)[C@@H]2C1` [OLEANOLIC_ACID], for which the pEC50 at 20S proteasome [23] is 5.57. Moreover, the fold change (FC) in experiment [24] was 8.
